SMILES strings stand for the structures. Like-named read-outs stand apart in the source and are kept apart here.

Test [1] concerns the target T1, glucagon receptor (GCGR) (Homo sapiens, UniProt P47871).
T1 construct: expressed in transfected cells; host or cells: CHO-K1 cells overexpressing GCGR (membrane fractions)
Nature of the test: I125-glucagon binding assay (competition, GCGR membrane fractions). The gist of the method:
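Competition of 0.0625 nM (final) I^125-glucagon for 30 min at 25° C, after 5 min compound preincubation, using 7.5 μg/well GCGR-overexpressing CHO-K1 membranes in 50 mM Tris pH 7.4, 0.5% BSA. Filtration onto PEI-coated GF/B, micro-beta counting, and non-linear regression gave IC50.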

For test [2], the target named is T2, glucagon receptor (GCGR) overexpressed CHO-K1 cells or human primary hepatocytes (Homo sapiens, UniProt P47871).
T2 construct: expressed in transfected cells; host or cells: GCGR overexpressed CHO-K1 cells or human primary hepatocytes (endogenous receptor)
T2 sequence (P47871 26-477): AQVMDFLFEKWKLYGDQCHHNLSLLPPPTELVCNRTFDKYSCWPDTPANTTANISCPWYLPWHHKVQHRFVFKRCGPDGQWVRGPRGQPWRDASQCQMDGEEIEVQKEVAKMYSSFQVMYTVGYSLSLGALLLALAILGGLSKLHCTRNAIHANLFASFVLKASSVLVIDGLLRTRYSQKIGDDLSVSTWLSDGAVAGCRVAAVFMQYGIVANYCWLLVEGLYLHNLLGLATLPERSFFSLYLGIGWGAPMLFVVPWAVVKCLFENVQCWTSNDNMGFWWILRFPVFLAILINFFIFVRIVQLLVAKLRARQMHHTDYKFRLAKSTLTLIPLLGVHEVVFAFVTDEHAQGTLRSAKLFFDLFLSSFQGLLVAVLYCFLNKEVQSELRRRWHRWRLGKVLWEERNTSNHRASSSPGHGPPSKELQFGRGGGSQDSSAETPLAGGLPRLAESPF
The experiment in a line: Glucagon cAMP inhibition assay (Cisbio cAMP Dynamic 2 HTRF). Type of test: cell-based. The gist of the method: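 HTRF read-out of glucagon-induced cAMP, with IC50 from non-linear regression. Cells (GCGR CHO-K1 or human primary hepatocytes) in HBSS/0.1% BSA/800 nM IBMX took compound dilutions for 30 min (final DMSO 1%), then EC50-level glucagon for 30 min at room temperature, then a 60 min lysis/detection step.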

T1 sequence (P47871 26-477): as above

On to `CC(C)[C@H](Nc1ccc(C(=O)NCCS(=O)(=O)O)cc1)C(=O)Nc1ccc(-c2cc3ccccc3o2)cc1` [Compound 23-34, (S)-2-(4-((1-((4-(benzofuran-2-yl)phenyl)amino)-3-methyl-1-oxobutan-2-yl)amino)benzamido)ethane-1-sulfonic Acid], for which the IC50 (in general, the concentration that inhibits the measured activity by half) in test [1] is 2.57 µM. In addition, the “IC50 cAMP” value in test [2] worked out at 75.611 µM.

Take `CCCC[C@H](Nc1ccc(C(=O)NCCC(=O)O)cc1)C(=O)Nc1ccc(-c2cc3ccccc3o2)cc1` [Compound 23-35, (S)-3-(4-((1-((4-(benzofuran-2-yl)phenyl)amino)-1-oxohexan-2-yl)amino)benzamido) propanoic Acid]: the half-inhibitory concentration (IC50) in test [1] turned out to be 0.186 µM. Moreover, in test [2], the “IC50 cAMP” value worked out at 15.397 µM.

In test [1] (uM), `CCOC(=O)CCNC(=O)c1ccc(N[C@H](CC(C)C)C(=O)Nc2ccc(-c3cc4ccccc4o3)cc2)cc1` [Compound 24-1] displayed an IC50 of more than 10 µM. Besides, in test [2], the “IC50 cAMP” value turned out to be 1.5 µM.

Regarding `CC(C)C[C@@H](Nc1ccc(C(=O)NCCC(=O)O)cc1)C(=O)Nc1ccc(-c2cc3ccccc3o2)cc1` [Compound 24-2, (R)-3-(4-((1-((4-(benzofuran-2-yl)phenyl)amino)-4-methyl-1-oxopentan-2-yl)amino)benzamido)propanoic Acid], the IC50 in test [1] was 0.311 µM. The “IC50 cAMP” value in test [2] stood at 0.5986 µM.

In the case of `CCOC(=O)CCNC(=O)c1ccc(N[C@H](Cc2ccccc2)C(=O)Nc2ccc(C(F)(F)F)cc2)cc1` [Compound 24-3, Ethyl (R)-3-(4-((1-oxo-3-phenyl-1-((4-(trifluoromethyl)phenyl)amino)propan-2-yl)amino)benzamido)propanoate], in test [1] (uM), the IC50 was more than 10 µM. The “IC50 cAMP” value in test [2] was 0.208 µM.

In test [1] (uM), `CCOC(=O)CCNC(=O)c1ccc(N[C@@H](Cc2ccccc2)C(=O)Nc2ccc(C(F)(F)F)cc2)cc1` [Compound 24-5, Ethyl (S)-3-(4-((1-oxo-3-phenyl-1-((4-(trifluoromethyl)phenyl)amino)propan-2-yl)amino)benzamido)propanoate] returned an IC50 of more than 10 µM. Also, in test [2], the “IC50 cAMP” value came to 5.8 µM.

`O=C(O)CCNC(=O)c1ccc(N[C@@H](Cc2ccccc2)C(=O)Nc2ccc(C(F)(F)F)cc2)cc1` [Compound 24-6, (S)-3-(4-((1-oxo-3-phenyl-1-((4-(trifluoromethyl)phenyl)amino)propan-2-yl)amino)benzamido)propanoic Acid] displayed an IC50 in test [1] of 7.4 µM. The “IC50 cAMP” value in test [2] (uM) was more than 10 µM.

Turning to `CCOC(=O)CCNC(=O)c1ccc(N[C@H](C(=O)Nc2ccc3cc(OC)ccc3c2)[C@@H](C)CC)cc1` [Compound 24-7, Ethyl 3-(4-(((2S,3S)-1-((6-methoxynaphthalen-2-yl)amino)-3-methyl-1-oxopentan-2-yl)amino)benzamido)propanoate], the IC50 in test [1] turned out to be 11.4 µM. Further, the “IC50 cAMP” value in test [2] came out at 0.217 µM.

For `CC[C@H](C)[C@H](Nc1ccc(C(=O)NCCC(=O)O)cc1)C(=O)Nc1ccc2cc(OC)ccc2c1` [Compound 24-8, 3-(4-(((2S,3S)-1-((6-methoxynaphthalen-2-yl)amino)-3-methyl-1-oxopentan-2-yl)amino)benzamido)propanoic Acid], in test [1], the IC50 was found to be 1.03 µM. The “IC50 cAMP” value in test [2] (uM) is more than 10 µM.

On to `CCOC(=O)CCNC(=O)c1ccc(N[C@H](CC(C)C)C(=O)Nc2ccc(C(F)(F)F)cc2)cc1` [Compound 24-9, Ethyl (R)-3-(4-((4-methyl-1-oxo-1-((4-(trifluoromethyl)phenyl)amino)pentan-2-yl)amino)benzamido)propanoate], for which the IC50 in test [1] (uM) was more than 10 µM. In addition, in test [2], the “IC50 cAMP” value turned out to be 1.059 µM.

In turn, `CC(C)C[C@@H](Nc1ccc(C(=O)NCCC(=O)O)cc1)C(=O)Nc1ccc(C(F)(F)F)cc1` [Compound 24-10, (R)-3-(4-((4-methyl-1-oxo-1-((4-(trifluoromethyl)phenyl)amino)pentan-2-yl)amino)benzamido)propanoic Acid] returned an IC50 in test [1] of 5.82 µM. In addition, the “IC50 cAMP” value in test [2] was 30.78 µM.

In test [1], `CCOC(=O)CCNC(=O)c1ccc(N[C@H](Cc2ccc(-c3ccc(C(C)(C)C)cc3)cc2)C(=O)Nc2ccc(C(F)(F)F)cc2)cc1` [Compound 24-15, Ethyl (R)-3-(4-((3-(4′-(tert-butyl)-[1,1′-biphenyl]-4-yl)-1-oxo-1-((4-(trifluoromethyl)phenyl)amino)propan-2-yl)amino)benzamido)propanoate] registered an IC50 of 0.578 µM. In addition, the “IC50 cAMP” value in test [2] came to 7.988 µM.

For the compound `CCOC(=O)CCNC(=O)c1ccc(N[C@H](Cc2ccc(-c3ccc(Cl)cc3Cl)cc2)C(=O)Nc2ccc(C(F)(F)F)cc2)cc1` [Compound 24-17, Ethyl (R)-3-(4-((3-(2′,4′-dichloro-[1,1′-biphenyl]-4-yl)-1-oxo-1-((4-(trifluoromethyl)phenyl)amino)propan-2-yl)amino)benzamido)propanoate], in test [1] (uM), the IC50 is more than 30 µM. For the same compound, the “IC50 cAMP” value in test [2] was found to be 0.1671 µM.

Compound `O=C(O)CCNC(=O)c1ccc(N[C@H](Cc2ccc(-c3ccc(Cl)cc3Cl)cc2)C(=O)Nc2ccc(C(F)(F)F)cc2)cc1` [Compound 24-18, (R)-3-(4-((3-(2′,4′-dichloro-[1,1′-biphenyl]-4-yl)-1-oxo-1-((4-(trifluoromethyl)phenyl)amino)propan-2-yl)amino)benzamido)propanoic Acid] registered an IC50 in test [1] of 0.239 µM. The “IC50 cAMP” value in test [2] amounted to 1.51 µM.

Compound `CCOC(=O)CCNC(=O)c1ccc(N[C@H](Cc2ccc(-c3cc4ccccc4o3)cc2)C(=O)Nc2ccc(C(F)(F)F)cc2)cc1` [Compound 24-19, Ethyl (R)-3-(4-((3-(4-(benzofuran-2-yl)phenyl)-1-oxo-1-((4-(trifluoromethyl)phenyl)amino)propan-2-yl)amino)benzamido)propanoate] yielded an IC50 in test [1] of 1.37 µM. Also, the “IC50 cAMP” value in test [2] was determined as 0.5384 µM.

`O=C(O)CCNC(=O)c1ccc(N[C@H](Cc2ccc(-c3cc4ccccc4o3)cc2)C(=O)Nc2ccc(C(F)(F)F)cc2)cc1` [Compound 24-20, (R)-3-(4-((3-(4-(benzofuran-2-yl)phenyl)-1-oxo-1-((4-(trifluoromethyl)phenyl)amino)propan-2-yl)amino)benzamido)propanoic Acid] had a half-inhibitory concentration (IC50) in test [1] of 0.193 µM. The “IC50 cAMP” value in test [2] was 1.947 µM.

Compound `CCOC(=O)CCNC(=O)c1ccc(N[C@H](Cc2ccc(-c3cc4ccccc4o3)cc2)C(=O)NC(C)C)cc1` [Compound 24-21, Ethyl (R)-3-(4-((3-(4-(benzofuran-2-yl)phenyl)-1-(isopropylamino)-1-oxopropan-2-yl)amino)benzamido)propanoate] displayed an IC50 in test [1] of 4.1 µM. The “IC50 cAMP” value in test [2] (uM) is more than 10 µM.

For the compound `CC(C)NC(=O)[C@@H](Cc1ccc(-c2cc3ccccc3o2)cc1)Nc1ccc(C(=O)NCCC(=O)O)cc1` [Compound 24-22, (R)-3-(4-((3-(4-(benzofuran-2-yl)phenyl)-1-(isopropylamino)-1-oxopropan-2-yl)amino)benzamido)propanoic Acid], the IC50 in test [1] was determined as 17.6 µM. Besides, the “IC50 cAMP” value in test [2] was found to be 9.522 µM.

In turn, `CCOC(=O)CCNC(=O)c1ccc(N[C@H](Cc2ccc(-c3cc4ccccc4o3)cc2)C(=O)Nc2cc(F)cc(F)c2)cc1` [Compound 24-23, Ethyl (R)-3-(4-((3-(4-(benzofuran-2-yl)phenyl)-1-((3,5-difluorophenyl)amino)-1-oxopropan-2-yl)amino)benzamido)propanoate] registered an IC50 in test [1] of 0.168 µM. In addition, in test [2], the “IC50 cAMP” value turned out to be 9.529 µM.

For `O=C(O)CCNC(=O)c1ccc(N[C@H](Cc2ccc(-c3cc4ccccc4o3)cc2)C(=O)Nc2cc(F)cc(F)c2)cc1` [Compound 24-24, (R)-3-(4-((3-(4-(benzofuran-2-yl)phenyl)-1-((3,5-difluorophenyl)amino)-1-oxopropan-2-yl)amino)benzamido)propanoic Acid], the IC50 in test [1] is 1.21 µM. Moreover, in test [2], the “IC50 cAMP” value worked out at 0.214 µM.

Consider `CCOC(=O)CCNC(=O)c1ccc(N[C@H](Cc2ccc(-c3ccc(C(C)(C)C)cc3)cc2)C(=O)Nc2ccc(OC(F)(F)F)cc2)cc1` [Compound 24-25, Ethyl (R)-3-(4-((3-(4′-(tert-butyl)-[1,1′-biphenyl]-4-yl)-1-oxo-1-((4-(trifluoromethoxy)phenyl)amino)propan-2-yl)amino)benzamido)propanoate], for which the IC50 in test [1] worked out at 0.226 µM. In test [2] (uM), the “IC50 cAMP” value is more than 10 µM.

`CC(C)(C)c1ccc(-c2ccc(C[C@@H](Nc3ccc(C(=O)NCCC(=O)O)cc3)C(=O)Nc3ccc(OC(F)(F)F)cc3)cc2)cc1` [Compound 24-26, (R)-3-(4-((3-(4′-(tat-butyl)-[1,1′-biphenyl]-4-yl)-1-oxo-1-((4-(trifluoromethoxy)phenyl)amino)propan-2-yl)amino)benzamido)propanoic Acid] yielded an IC50 in test [1] of 0.0457 µM. Further, the “IC50 cAMP” value in test [2] amounted to 0.8313 µM.

Compound `CCOC(=O)CCNC(=O)c1ccc(N[C@H](Cc2ccc(-c3ccc(C(F)(F)F)cc3)cc2)C(=O)Nc2ccc(OC(F)(F)F)cc2)cc1` [Compound 24-27, Ethyl (R)-3-(4-((1-oxo-1-((4-(trifluoromethoxy)phenyl)amino)-3-(4′-(trifluoromethyl)-[1,1′-biphenyl]-4-yl)propan-2-yl)amino)benzamido)propanoate] yielded an IC50 in test [1] of 1.28 µM. Also, the “IC50 cAMP” value in test [2] worked out at 0.3185 µM.

In test [1], `O=C(O)CCNC(=O)c1ccc(N[C@H](Cc2ccc(-c3ccc(C(F)(F)F)cc3)cc2)C(=O)Nc2ccc(OC(F)(F)F)cc2)cc1` [Compound 24-28, (R)-3-(4-((1-oxo-1-((4-(trifluoromethoxy)phenyl)amino)-3-(4′-(trifluoromethyl)-[1,1′-biphenyl]-4-yl)propan-2-yl)amino)benzamido)propanoic Acid] returned an IC50 of 0.0465 µM. In test [2], the “IC50 cAMP” value stood at 1.54 µM.

The record behind these values is patent US11384060B2, “Amide compounds and use thereof” (ALPHALA CO., LTD., priority 2017, dated 2022).
